In US8859584B2, “TRPV1 antagonists” (AbbVie Inc., priority 2011, dated 2014):

Key:
[1] = biological target: T1, human TRPV1 (Homo sapiens, UniProt Q8NER1); experiment: Capsaicin Activation Assay (FLIPR intracellular Ca2+, recombinant HEK293 cells); type: cell-based; details: recombinant HEK293 cells expressing hTRPV1; 50 nM capsaicin; read-out: human TRPV1 capsaicin IC50
T1 construct: expressed in transfected cells
Experimental: (i) Capsaicin Activation Assay
Dulbecco's modified Eagle medium (DMEM) (with 4.5 mg/mL glucose) and fetal bovine serum were obtained from Hyclone Laboratories, Inc. (Logan, Utah). Dulbecco's phosphate-buffered saline (DPBS) (with 1 mg/mL glucose and 3.6 mg/l Na pyruvate, without phenol red), L-glutamine, hygromycin B, and Lipofectamine® were obtained from Life Technologies (Grand Island, N.Y.). G418 sulfate was obtained from Calbiochem-Novabiochem Corp. (San Diego, Calif.). Capsaicin (8-methyl-N-vanillyl-6-nonenamide) was obtained from Sigma-Aldrich, Co. (St. Louis, Mo.). Fluo-4 AM (N-[4-[6-[(acetyloxy)-methoxy]-2,7-difluoro-3-oxo-3H-xanthen-9-yl]-2-[2-[2-[bis[2-[(acetyloxy)methoxy]-2-oxyethyl]amino]-5-methylphenoxy]ethoxy]phenyl]-N-[2-[(acetyloxy)methoxy]-2-oxyethyl]-glycine, (acetyloxy)methyl ester) was purchased from Molecular Probes (Eugene, Oreg.).
(§1) Expression plasmids encoding the hTRPV1 cDNA were transfected into HEK293 cells using Lipofectamine®. Forty-eight hours after transfection, the neomycin-resistant cells were selected with growth medium containing 800 μg/mL Geneticin (Life Technologies, formerly Gibco BRL). Surviving individual colonies were isolated and screened for TRPV1 activity. Cells expressing recombinant TRPV1 were maintained at 37° C. in DMEM containing 4 mM L-glutamine, 300 μg/mL G418 (Calbiochem) and 10% fetal bovine serum under a humidified 5% CO2 atmosphere.
The functional activity of compounds at the TRPV1 receptor was determined by measurement of intracellular Ca^2+ levels ([Ca^2+]i) using the Fluorescence Imaging Plate Reader (FLIPR)TETRA®. All compounds were tested over a 12-point one-third-log concentration range. Compound stocks, 10 mM, were prepared in DMSO, and diluted serially across a 384-well plate using a Bravo BenchCel workstation (Agilent Technologies, Santa Clara, Calif.). A stock concentration of capsaicin (10 mM) was made in DMSO, and diluted in DPBS to a final concentration of 200 nM (4×). On the day prior to the experiment, the recombinant HEK293 cells expressing human TRPV1 (hTRPV1) were removed from tissue culture flasks and plated in growth medium into black-walled clear-bottom 384-well Biocoat™ poly-D-lysine assay plates (BD Biosciences, Bedford, Mass.) using a Multidrop® dispenser (ThermoScientific, Waltham, Mass.). […] The plated cells were incubated for 90-120 minutes in the dark at room temperature and then test compound was added to each well. Three minutes later, 200 nM capsaicin (4×) solution was added to each well in an amount sufficient to provide a final assay volume of 80 μL and capsaicin concentration of 50 nM. Fluorescence readings were made at 1 to 5 second intervals over the course of the experimental run. The peak increase in relative fluorescence units (minus baseline) was calculated, and expressed as a percentage of the 50 nM capsaicin (control) response.

[2] = biological target: T1, human TRPV1; experiment: Acid Activation Assay (pH 5.0, FLIPR intracellular Ca2+, recombinant HEK293 cells); type: cell-based; details: percentage of maximal pH 5.0-induced response remaining; HEK293 hTRPV1; max concentration 37.5 μM
Experimental: (ii) Acid Activation Assay
Dulbecco's modified Eagle's medium (DMEM) with 4.5 mg/mL D-glucose, fetal bovine serum, L-glutamine, and 2-morpholinoethanesulfonic acid (MES) were purchased from Sigma-Aldrich Co. (St. Louis, Mo.). […] The FLIPR® Calcium 4 assay kit was purchased from Molecular Devices (Sunnyvale, Calif.).
as §1
The functional activity of compounds at the TRPV1 receptor was determined by measurement of intracellular Ca^2+ levels ([Ca^2+]i) using the Fluorescence Imaging Plate Reader (FLIPR)TETRA®. […] Compound stocks, 10 mM, were prepared in DMSO, and diluted serially across a 384-well plate using a Bravo BenchCel workstation (Agilent Technologies, Santa Clara, Calif.). On the day prior to the experiment, the recombinant HEK293 cells expressing human TRPV1 (hTRPV1) were removed from tissue culture flasks and plated in growth medium into black-walled clear-bottom 384-well Biocoat™ poly-D-lysine assay plates (BD Biosciences, Bedford, Mass.) using a Multidrop® dispenser (ThermoScientific, Waltham, Mass.). […] The plated cells were incubated for 90-120 min in the dark at 25° C. The test compounds dissolved in DMSO were then added to the plates using an Agilent Bravo workstation (Agilent Technologies Inc., Santa Clara, Calif.). Three minutes later, a pH 5.0 solution was added to each well. Reagents were delivered at a rate of 40 μL/sec, and the final assay volume was 80 μL. Acidic pH solutions were prepared by titration of DPBS/MES with 1 N HCl. The intensity of the fluorescence was captured and digitally transferred to an interfaced PC. The maximum peak measured for the concentration range tested was used to calculate the corresponding peak increase in fluorescence over baseline (relative fluorescence units) which was expressed as the percentage (max % remain) of the maximal pH 5.0-induced response.

T1 sequence (Q8NER1 whole entry): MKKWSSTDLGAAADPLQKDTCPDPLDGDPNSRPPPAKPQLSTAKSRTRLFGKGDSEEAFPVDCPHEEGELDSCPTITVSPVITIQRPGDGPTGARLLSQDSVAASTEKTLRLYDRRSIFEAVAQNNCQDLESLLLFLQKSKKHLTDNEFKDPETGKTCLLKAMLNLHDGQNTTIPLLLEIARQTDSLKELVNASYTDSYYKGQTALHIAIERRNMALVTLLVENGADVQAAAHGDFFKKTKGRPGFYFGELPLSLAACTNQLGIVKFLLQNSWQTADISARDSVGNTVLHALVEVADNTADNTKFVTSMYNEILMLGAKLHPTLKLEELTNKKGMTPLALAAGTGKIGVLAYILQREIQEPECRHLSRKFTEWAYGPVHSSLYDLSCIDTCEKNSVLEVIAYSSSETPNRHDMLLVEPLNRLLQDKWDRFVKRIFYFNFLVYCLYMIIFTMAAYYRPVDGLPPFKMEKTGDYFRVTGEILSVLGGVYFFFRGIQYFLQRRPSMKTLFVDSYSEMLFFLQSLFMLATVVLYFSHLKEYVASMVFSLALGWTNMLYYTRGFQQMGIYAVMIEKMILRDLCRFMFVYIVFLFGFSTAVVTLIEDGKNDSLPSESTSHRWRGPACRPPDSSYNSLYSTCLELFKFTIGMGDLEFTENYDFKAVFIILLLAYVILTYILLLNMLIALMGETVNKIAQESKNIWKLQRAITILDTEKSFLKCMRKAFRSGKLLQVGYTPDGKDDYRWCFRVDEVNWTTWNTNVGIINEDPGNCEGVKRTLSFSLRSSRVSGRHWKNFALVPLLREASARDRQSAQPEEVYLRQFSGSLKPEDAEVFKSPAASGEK

| SMILES | IC50 [1] [µM] | human TRPV1 H+ (max % remain) [2] [%] |
| --- | --- | --- |
| CC1(C)C[C@@H](NC(=O)Nc2cccc3c2C[C@H](O)C3)c2cccc(F)c2O1 [Example 46, 1-[(4R)-8-fluoro-2,2-dimethyl-3,4-dihydro-2H-chromen-4-yl]-3-[(2R)-2-hydroxy-2,3-dihydro-1H-inden-4-yl]urea] | 0.43 | 87 |
| O=C(Nc1cccc2c1C[C@H](O)C2)N[C@@H]1CCOc2ccccc21 [Example 47, 1-[(4R)-3,4-dihydro-2H-chromen-4-yl]-3-[(2R)-2-hydroxy-2,3-dihydro-1H-inden-4-yl]urea] | 4.1 | 81 |
| CCC1(CC)C[C@@H](NC(=O)Nc2cccc3c2C[C@H](O)C3)c2cccc(F)c2O1 [Example 48, 1-[(4R)-2,2-diethyl-8-fluoro-3,4-dihydro-2H-chromen-4-yl]-3-[(2R)-2-hydroxy-2,3-dihydro-1H-inden-4-yl]urea] | 0.024 | 89 |
| CCC1(CC)C[C@@H](NC(=O)Nc2cccc3c2C[C@H](O)C3)c2ccccc2O1 [Example 49, 1-[(4R)-2,2-diethyl-3,4-dihydro-2H-chromen-4-yl]-3-[(2R)-2-hydroxy-2,3-dihydro-1H-inden-4-yl]urea] | 0.022 | 75 |
| CC(C)(C)c1ccc2c(c1)CC[C@H]2NC(=O)Nc1cccc2c1C[C@H](O)C2 [Example 50, 1-[(1R)-5-tert-butyl-2,3-dihydro-1H-inden-1-yl]-3-[(2R)-2-hydroxy-2,3-dihydro-1H-inden-4-yl]urea] | 0.032 | 69 |
| CC(C)(C)c1cccc2c1OCC[C@H]2NC(=O)Nc1cccc2c1C[C@H](O)C2 [Example 51, 1-[(4R)-8-tert-butyl-3,4-dihydro-2H-chromen-4-yl]-3-[(2R)-2-hydroxy-2,3-dihydro-1H-inden-4-yl]urea] | 0.018 | 70 |
| CCC1(CC)C[C@@H](NC(=O)Nc2cccc3c2C[C@H](O)C3)c2ccc(F)cc2O1 [Example 52, 1-[(4R)-2,2-diethyl-7-fluoro-3,4-dihydro-2H-chromen-4-yl]-3-[(2R)-2-hydroxy-2,3-dihydro-1H-inden-4-yl]urea] | 0.013 | 73 |
| CCC1(CC)C[C@@H](NC(=O)Nc2cccc3c2C[C@H](O)C3)c2ccc(C(F)(F)F)cc2O1 [Example 53, 1-[(4R)-2,2-diethyl-7-(trifluoromethyl)-3,4-dihydro-2H-chromen-4-yl]-3-[(2R)-2-hydroxy-2,3-dihydro-1H-inden-4-yl]urea] | 0.051 | 37 |
| CCC1(CC)C[C@@H](NC(=O)Nc2cccc3c2C[C@H](O)C3)c2ccc(Cl)cc2O1 [Example 54, 1-[(4R)-7-chloro-2,2-diethyl-3,4-dihydro-2H-chromen-4-yl]-3-[(2R)-2-hydroxy-2,3-dihydro-1H-inden-4-yl]urea] | 0.076 | 59 |
| CCC1(CC)C[C@@H](NC(=O)Nc2cccc3c2C[C@H](O)C3)c2ccc(Cl)c(Cl)c2O1 [Example 55, 1-[(4R)-7,8-dichloro-2,2-diethyl-3,4-dihydro-2H-chromen-4-yl]-3-[(2R)-2-hydroxy-2,3-dihydro-1H-inden-4-yl]urea] | 0.24 | 72 |
| CCCC1(CCC)C[C@@H](NC(=O)Nc2cccc3c2C[C@H](O)C3)c2cc(F)ccc2O1 [Example 56, 1-[(4R)-6-fluoro-2,2-dipropyl-3,4-dihydro-2H-chromen-4-yl]-3-[(2R)-2-hydroxy-2,3-dihydro-1H-inden-4-yl]urea] | 0.046 | 96 |
| O=C(Nc1cccc2c1C[C@H](O)C2)N[C@@H]1CC(CF)(CF)Oc2ccc(F)cc21 [Example 57, 1-[(4R)-6-fluoro-2,2-bis(fluoromethyl)-3,4-dihydro-2H-chromen-4-yl]-3-[(2R)-2-hydroxy-2,3-dihydro-1H-inden-4-yl]urea] | 0.57 | 63 |
